Laboratory results: patent publication US20220133846A1, “NOVEL ANTIMICROBIAL COMPOUND AND USES THEREOF” (priority 2019, published 2022)
≈ marks a conversion by molar mass, not a printed value. Where “and” joins values, the source holds several entries; their conditions need not be identical. Equal values may be shown once. Read-outs that look alike come from different tables or passages of the source.

Key:
Acinetobacter septicus = assay: MIC against clinical isolates (Christiana Hospital); format: cell-based; settings: clinical strain CH44, drug resistance N
Acinetobacter guillouiae = assay: as above; format: cell-based; settings: clinical strain CH42, drug resistance N
Acinetobacter baumannii [1] = assay: microbe, parasite or virus in culture
Acinetobacter modestus = assay: MIC against clinical isolates (Christiana Hospital); format: cell-based; settings: clinical strain CH43, drug resistance N
Acinetobacter ursingii = assay: as above; format: cell-based; settings: clinical strain CH41, drug resistance N
[2] = system: Acinetobacter calcoaceticus; assay: as above; format: cell-based; settings: clinical strain CH37, drug resistance N
[3] = system: broad spectrum of Gram-positive bacteria; settings: cited from earlier work
[4] = system: S. aureus (SA) and MRSA biofilms; format: cell-based
[5] = system: S. aureus NRS 384 (USA300-0114); assay: Murine neutropenic thigh infection model; format: in vivo, mice; settings: 25 mg/kg, both studies
Acinetobacter baumannii [6] = system: Acinetobacter baumannii
A. baumannii (CH-46) = assay: Frequency of resistance (FoR) in vitro; format: cell-based
S. aureus = assay: Prevention of biofilm formation by pre-coating wells; format: cell-based; settings: data not shown

Molecule: C[C@@H](O)[C@H]1C(=O)N2C(C(=O)O)=C(SCCN=CN)C[C@H]12 [Imipenem]
- MIC (Acinetobacter septicus; Acinetobacter septicus, read-out: MIC): 1.46 µg/mL (≈ 4.88 µM)
- MIC (Acinetobacter guillouiae; Acinetobacter guillouiae, read-out: MIC): 7.81 µg/mL (≈ 26.1 µM)
- MIC (Acinetobacter baumannii [1]; clinical strain CH36, drug resistance N): 250 µg/mL (≈ 835 µM)
- MIC (Acinetobacter baumannii [1]; clinical strain CH38, drug resistance N): 125 µg/mL (≈ 418 µM)
- MIC (Acinetobacter baumannii [1]; clinical strain CH39, drug resistance N): 15.6 µg/mL (≈ 52.2 µM)
- MIC (Acinetobacter baumannii [1]; clinical strain CH40, drug resistance N): 31.2 µg/mL (≈ 104 µM)
- MIC (Acinetobacter baumannii [1]; clinical strain CH45, drug resistance Y): 125 µg/mL (≈ 418 µM)
- MIC (Acinetobacter baumannii [1]; clinical strain CH46, drug resistance Y): 250 µg/mL (≈ 835 µM)
- MIC (Acinetobacter baumannii [1]; clinical strain CH47, drug resistance Y): 3.91 µg/mL (≈ 13.1 µM)
- MIC (Acinetobacter baumannii [1]; clinical strain CH48, drug resistance Y): 7.81 µg/mL (≈ 26.1 µM)
- MIC (Acinetobacter baumannii [1]; clinical strain CH49, drug resistance Y): 62.5 µg/mL (≈ 209 µM)
- MIC (Acinetobacter baumannii [1]; clinical strain CH50, drug resistance Y): 62.5 µg/mL (≈ 209 µM)
- MIC (Acinetobacter baumannii [1]; clinical strain CH51, drug resistance Y): 31.2 µg/mL (≈ 104 µM)
- MIC (Acinetobacter baumannii [1]; clinical strain CH52, drug resistance Y): 31.2 µg/mL (≈ 104 µM)
- MIC (Acinetobacter baumannii [1]; clinical strain CH53, drug resistance Y): 31.2 µg/mL (≈ 104 µM)
- MIC (Acinetobacter baumannii [1]; clinical strain CH54, drug resistance Y): 7.81 µg/mL (≈ 26.1 µM)
- MIC (Acinetobacter baumannii [1]; clinical strain CH55, drug resistance Y): 46.9 µg/mL (≈ 157 µM)
- MIC (Acinetobacter modestus; Acinetobacter modestus, read-out: MIC): 0.5 µg/mL (≈ 1.67 µM)
- MIC (Acinetobacter ursingii; Acinetobacter ursingii, read-out: MIC): 1 µg/mL (≈ 3.34 µM)
- MIC ([2]; Acinetobacter calcoaceticus, read-out: MIC): 0.5 µg/mL (≈ 1.67 µM)

Molecule: C=C1NC(=O)CC[C@@H](C(=O)O)NC(=O)[C@H](NC(=O)[C@H](CCCCN)NC(=O)[C@@H](N)Cc2c[nH]c3ccccc23)CSC[C@@H](C(=O)N[C@@H]2C(=O)N3CCC[C@H]3C(=O)NCC(=O)N[C@H](C(=O)N[C@H](C(=O)N[C@@H]3C(=O)NCC(=O)N[C@@H](C)C(=O)N[C@@H](CC(C)C)C(=O)N[C@@H](CCC(N)=O)C(=O)N/C(=C/C)C(=O)N[C@H](C(=O)N[C@@H](Cc4ccccc4)C(=O)N[C@@H](CC(C)C)C(=O)N[C@@H](CCC(N)=O)C(=O)N[C@@H]4C(=O)N[C@@H](CC(C)C)C(=O)N[C@H]5C(=O)N[C@@H](CSC4C)C(=O)NC(=O)[C@H](CC(N)=O)N[C@H](C(=O)N[C@@H](CCCCN)C(=O)N[C@H](C(=O)NC(=C)C(=O)N[C@@H](CCCCN)C(=O)O)[C@@H](C)CC)CSC5C)CSC3C)C(C)C)CSC2C)N[C@@H](CC(C)C)C(=O)NC1=O (some centres unmarked) [subtilin]
- Antimicrobial activity [3]: nanomolar range

Molecule: CN[C@H](CC(C)C)C(=O)N[C@H]1C(=O)N[C@@H](CC(N)=O)C(=O)N[C@H]2C(=O)N[C@H]3C(=O)N[C@H](C(=O)N[C@H](C(=O)O)c4cc(O)cc(O)c4-c4cc3ccc4O)[C@H](O)c3ccc(c(Cl)c3)Oc3cc2cc(c3O[C@@H]2O[C@H](CO)[C@@H](O)[C@H](O)[C@H]2O[C@H]2C[C@](C)(N)[C@H](O)[C@H](C)O2)Oc2ccc(cc2Cl)[C@H]1O [vancomycin, reference compound]
- Effect on viability of pre-formed biofilm [4]: not effective
- Bacterial load relative to pre-treatment levels [5]: reduced bacterial load to or below pre-treatment levels

Molecule: Colistin
- MIC (Acinetobacter septicus): 1.95 µg/mL
- MIC (Acinetobacter guillouiae): 3.91 µg/mL
- MIC (Acinetobacter modestus): 7.81 µg/mL
- MIC (Acinetobacter baumannii [6]): 3.91 µg/mL and 5.86 µg/mL and 7.81 µg/mL
- MIC (Acinetobacter ursingii): 1.95 µg/mL
- Frequency of resistance (FoR) (A. baumannii (CH-46); 2X MIC): 2.7 × 10^−7
- Frequency of resistance (FoR) (A. baumannii (CH-46); 3X MIC): 3.7 × 10^−8
- Frequency of resistance (FoR) (A. baumannii (CH-46); 4X MIC): 5.2 × 10^−8
- Frequency of resistance (FoR) (A. baumannii (CH-46); 5X MIC): 5.4 × 10^−8
- Frequency of resistance (FoR) (A. baumannii (CH-46); 10X MIC): 2.0 × 10^−9
- MIC [2]: 3.91 µg/mL

B1: platelet factor 4: a control cationic peptide (protein, UniProt P02776 32-101, looked up)
Platelet factor 4: EAEEDGDLQCLCVKTTSQVRPRHITSLEVIKAGPHCPTAQLIATLKNGRKICLDLQAPLYKKIIKKLLES
- Effect of coating wells on S. aureus attachment (S. aureus): no effect
